The values below come from patent US9315510B2, “Method and application of unsymmetrically meso-substituted porphyrins and chlorins for PDT” (Biolitec Pharma Marketing LTD, priority 2008, dated 2016).

For data set [1], the system named is mouse monocytes-macrophages cell line J774A.1. The experiment in a line: Cell tests in the mouse macrophage cell line J774A.1: photodynamic activity, XTT cell viability. It is filed as cell-based. The settings on record: 2 or 10 μM photosensitizer, 24 h incubation, 652 nm diode laser, 50 J/cm^2. The method, then: (§1) The mouse monocytes-macrophages cell line J774A.1 and the rabbit synoviocyte cell line HIG-82 were grown in DMEM (cc-pro GmbH) supplemented with 10% heat-inactivated fetal calf serum (FCS, cc-pro GmbH), 1% penicillin (10000 IU) and streptomycin (10 000 μg/ml, cc-pro GmbH). Cells were kept as a monolayer culture in a humidified incubator (5% CO2 in air at 37° C.).
(§2) A photosensitizer stock solution (2 mM) was performed in DMSO and was kept in the dark at 4° C. Further dilution was performed in RPMI 1640 medium without phenol red supplemented with 10% FCS to reach a final photosensitizer concentration of 2 or 10 μM, respectively.
(§3) 2·10^4 cells/ml were seeded in micro plates (2·10^5 cells/well). Cells were incubated with fresh medium (RPMI without phenol red) containing 10% FCS with 2 or 10 μM of the photosensitizer for 24 h before light exposure. […]
(§4) The cell viability was assessed by the XTT assay. […]
(§5) The absorbance of the samples was measured with a spectrophotometer (Bio-Kinetics Reader EL312 e; Bio-Tek Instruments Inc.) at a wavelength of 490 nm. In order to measure reference absorbance (to measure non-specific readings) a wavelength of 630-690 nm was used.

In data set [2] the test system is rabbit synoviocyte cell line HIG-82. The experiment in a line: Cell tests in the rabbit synoviocyte cell line HIG-82: photodynamic activity, XTT cell viability. The conditions noted are these: HIG82, 2 or 10 μM photosensitizer, 24 h incubation, 652 nm diode laser, 50 J/cm^2. It is filed as cell-based. The protocol:
as §1, §2, §3, §4, §5
For orientation: Tetrazolium assays rely on reduction of a dye to a coloured formazan, in cell work by metabolically active cells.

The subject of data set [3] is human colon adenocarcinoma cell line HT29. Put plainly: Cell tests in the HT 29 cell line: photosensitizing activity, XTT cell viability. It is filed as cell-based. The method, then: The photosensitizing activity was determined in the human colon adenocarcinoma cell line HT29. The HT29 cell lines were grown in DMEM (cc-pro GmbH) supplemented with 10% heat-inactivated fetal calf serum (FCS, cc-pro GmbH), 1% penicillin (10000 IU) and streptomycin (10000 μg/ml, cc-pro GmbH). Cells were kept as a monolayer culture in a humidified incubator (5% CO2 in air at 37° C.
as §2, §3, §4, §5

As usually defined, the melting point is the temperature, or range, at which the solid turns liquid. Regarding `CCCCCCc1c2nc(c(CCCCCC)c3ccc([nH]3)c(-c3ccc(C(=O)OC)cc3)c3nc(c(-c4ccc(C(=O)OC)cc4)c4ccc1[nH]4)C=C3)C=C2` [5,10-Dihexyl-15,20-bis-(4-methoxycarbonylphenyl)-porphyrin], the melting point amounted to 131 °C. Regarding `CCCCCCc1c2nc(c(-c3ccc(C(=O)O)cc3)c3ccc([nH]3)c(-c3ccc(C(=O)O)cc3)c3nc(c(CCCCCC)c4ccc1[nH]4)C(O)C3O)C=C2` (stereo not shown) [5,20-Bis-(4-carboxyphenyl)-10,15-dihexyl-7,8-dihydroxy-7,8-chlorin], the photodynamic activity entry in data set [1] and in data set [2] was “very strong photodynamic activity” each time. Regarding “5,15-Bis-(4-carboxyphenyl)-10,20-dihexyl-7,8-dihydroxy-7,8-chlorin”, the photodynamic activity entry in data set [1] and in data set [2] was “very strong photodynamic activity” in each case. Also, the “photodynamic activity (photo toxicity)” value in data set [3] (HT29, 2 or 10 μM photosensitizer, 24 h incubation, 652 nm diode laser, 100 mW/cm^2 (50 J/cm^2), XTT 24 h after irradiation) was “very strong photodynamic activity”. In addition, the “dark toxicity (DT) and photo toxicity” value in data set [3] (HT 29 cell line, cell culture experiments (FIG. 4A)) is “excellent properties”. As for `CCCCCCCCCCCCCc1c2nc(c(CCCCCCCCCCCCC)c3ccc([nH]3)c(-c3cccc(O)c3)c3nc(c(-c4cccc(O)c4)c4ccc1[nH]4)C=C3)C=C2` [5,10-Bis-(3-hydroxyphenyl)-15,20-bis-(tridecyl)-porphyrin], the melting point came to 113 °C. On the same count and under the same terms, as for `CCCCCCCCCCCCCc1c2nc(c(-c3cccc(O)c3)c3ccc([nH]3)c(CCCCCCCCCCCCC)c3nc(c(-c4cccc(O)c4)c4ccc1[nH]4)C=C3)C=C2` [5,15-Bis-(3-hydroxyphenyl)-10,20-bis-(tridecyl)-porphyrin], the figure is 133 °C; as for `CCCCCCc1c2nc(c(-c3ccc(C(=O)OC)cc3)c3ccc([nH]3)c(CCCCCC)c3nc(c(-c4ccc(C(=O)OC)cc4)c4ccc1[nH]4)C=C3)C=C2` [5,15-Dihexyl-10,20-bis-(4-methoxycarbonylphenyl)-porphyrin], 238 °C.
